# Assays:
# [1] = Antigen / drug loading efficiency in HDL nanodiscs (HPLC/MS); type: physicochemical; settings: for loading efficiency in HDL: antigen / antigen-lipid conjugate loaded into HDL nanodiscs, HPLC/MS
# Procedure: (§1) HDL nanodisc was prepared as previously described. Briefly, DMPC was dissolved in chloroform, which was evaporated with nitrogen flow and under vacuum for at least 1 h. The resulting lipid film was hydrated in 10 mM sodium phosphate buffer and sonicated in a bath sonicator for 10 min. ApoA1 mimetic peptide 22A dissolved in endotoxin free water was added to the above mixture (22A:DMPC=1:2 weight ratio) to obtain nanodiscs. To load MOG antigen peptide in nanodiscs, each antigen peptide was reacted with 4-(4-maleimidophenyl)-butyric DOPE for 3 h in dimethylformamide (DMF), which was removed by freeze-drying after dilution 10× with endotoxin-free water. The lipid-peptide conjugates were dissolved in DMSO and added to pre-formed sHDL and incubated for 30 min at room temperature. Unreacted MOG peptides were removed by using Zeba Spin Desalting columns (Pierce) following the manufacturer's instructions. The conjugation efficiency of MOG peptide was determined by LC-MS and gel permeation chromatography (GPC). EAE was induced in female C57BL/6 mice by inoculation with 100 μg of MOG in complete Freund's adjuvant on day 0 following the administration of pertussis toxin. Mice were then injected subcutaneously at tail base for therapeutic study with sHDL-MOG, MOG or PBS on indicated days. Mice were weighed and scored daily based on the following guideline: 0, no sign of disease; 1, loss of tone in the tail; 2, hind limb paresis; 3, hind limb paralysis; 4, tetraplegia; and 5, moribund.
# To produce HDL nanodiscs carrying immunomodulatory drugs, 22A, and DMPC were dissolved in acetic acid and freeze-dried overnight as shown above. Drugs (FTY720, ITE, TSA, or SAHA) were dissolved in chloroform and added to lyophilized powder, followed by drying overnight in vacuum oven. Dried samples were rehydrated by 10 mM phosphate buffer. After three heat-cooling cycles, HDL-loaded with drugs were performed. The concentration of each drug was measured by HPLC-MS as shown for FTY720, ITE, TSA, or SAHA (FIGS. 14-17, respectively). Free drugs were used to generate standard curves. […] Samples were also analyzed by dynamic light scattering (DLS) for the particle sizes. […] We also analyzed HDL-FTY720 samples using gel permeation chromatography (GPC) (FIG. 19).
# We synthesized HDL nanodiscs loaded with other CD4+ T cell epitopes for validation of our approach. We have synthesized phospholipids conjugated to either Ea chain 52-68 peptide (EA, ASFEAQGALANIAVDKA (SEQ ID NO: 831)), ovalbumin-II 323-339 peptide (OVA-II, ISQAVHAAHAEINEAGR (SEQ ID NO: 832)), and type-II collagen 250-270 peptide (CIA, […] (SEQ ID NO: 833)), each modified with CSS-peptide at N-terminus. Antigen-lipid conjugates were loaded into HDL nanodiscs as described above and analyzed by HPLC/MS and DLS. EA, OVA-II, and CIA peptides were conjugated to MPB-phospholipids with ˜95% conjugation efficiency (FIGS. 22-25). Antigen-lipid conjugates were efficiently loaded into HDL nanodiscs with ˜90%, ˜84%, and ˜78% loading efficiency for EA, OVA-II, and CIA peptides, respectively (FIGS. 22-25).
# [2] = test system: microglia; test: Cellular uptake by microglia (confocal microscopy); type: cell-based, C57BL6/J mice; settings: FITC-labelled antigen
# Procedure: Mixed glial cell cultures were harvested from the cerebral cortex of newborn (P0-2) C57BL6/J mice as described previously. Cortices and brain stem were separated, and the blood vessels and meninges were carefully isolated. Then, the tissues were digested by enzymatic dissociation (0.05% trypsin-EDTA and […] DNase I), washed two times with 1% BSA in PBS. Cells were resuspended in DMEM (10% FBS, 1% penicillin/streptomycin, 0.5 mM 2-mercaptoethanol). Mixed glial cells were cultured in poly-D-lysine-coated flasks and grown at 37° C. and 5% CO2. After 10 days, microglia cells were isolated from the underlying astrocytic layer by shaking of the flask. The cell culture contained more than 95% microglial (CD11 b+, CD45+) cells as analyzed by flow cytometry.
# (§2) Internalization of fluorescent HDL-MOG by BMDCs or microglia were visualized using confocal microscopy. BMDCs or microglia were seeded at 1×10^6 cells on 35 mm Petri dishes (MatTek) and incubated with the mixture of free CSS-MOG-K(FITC), or sHDL-CSS-MOG-K(FITC). Cells were then washed three times with PBS, fixed with 4% paraformaldehyde, washed, and permeabilized with 0.1% Triton-X solution. Actin filaments were stained with AlexaFluor 647-Phalloidin, MHC-II was stained with MHC-II-Texas red, and the nuclei were stained with DAPI. The samples were imaged using a 63× oil-immersion lens on a Nikon A-I spectral confocal microscope.
# [3] = test system: bone marrow-derived dendritic cells (BMDCs); test: Cellular uptake by BMDCs (confocal microscopy); type: cell-based, C57BL/6 mice; settings: FITC-labelled antigen
# Procedure: To obtain bone marrow-derived dendritic cells (BMDCs), bone marrow was flushed from femurs and tibia bone of 5 to 6 weeks old C57BL/6 mice. Bone marrow cells were plated at 1×10^6 cells per dish in RPMI 1640 supplemented with 10% FBS, 55 μM β-mercaptoethanol, 5 ng/ml of GM-CSF, and 100 U/ml penicillin (BMDC media). On day three and five, one half of the culture media was replaced with fresh media. After 8 days, BMDCs were harvested and plated at 1×10^6 cells per well in 12-well plates.
# as §2
# [4] = test system: experimental autoimmune encephalomyelitis (EAE); test: Experimental autoimmune encephalomyelitis (EAE) mouse model, pathological score; type: in vivo, C57BL/6 mice; settings: for time until mice were moribund: treated on days 2, 9 and 16; for average pathological score: treated s.c. on days 2, 9 and 16
# Procedure: as §1
# EAE-induced mice were administered s.c. with PBS or HDL-MOG on days 15, 22, and 29, and a subset of animals also received i.p. administration of […] to deplete Tregs at the specified time points (FIG. 13).
# We examined the therapeutic potential of HDL-FTY720 in the EAE model. EAE was initiated as described above. Briefly, EAE was induced in mice as indicated above. Mice received i.p. administration of PBS or HDL-FTY720 (1 mg/kg) on days 14, 21, and 28. Mice were scored daily and assigned EAE scores as indicated above.
# [5] = test system: CNS tissues of EAE mice; test: Cytokine release from CNS cells of treated EAE mice after ex vivo MOG35-55 re-stimulation (ELISA); type: in vivo, C57BL/6 mice; settings: day 40, pulsed ex vivo with MOG35-55
# Procedure: FIG. 6A is a schematic diagram depicting the treatment regimen. FIG. 6B are graphs showing the amount of GM-CSF, IFN-gamma, and IL-17 released after ex vivo treatment of CNS tissues with MOG35-55 peptide.
# Briefly, female C57BL/6 mice were injected subcutaneously with an emulsion of MOG35-55 ([…], SEQ ID NO: 830) in complete Freund's adjuvant (CFA) and intraperitoneal (i.p.) injection of pertussis toxin (120 ng/dose on days 0 and 2). EAE-induced mice were treated with PBS, free MOG, HDL-MOG, or HDL-M30 (irrelevant CD4+ T cell epitope from B16F10 tumor cells) and CNS tissues were harvested on day 40 (FIG. 10A). CNS tissues were harvested from mice after intracardiac perfusion with PBS. Spinal cord was harvested, homogenized in 10 ml of PBS containing 1% BSA, and pelleted at 800×g for 5 min. Cell pellets were resuspended in 3 ml of collagenase A (1 mg/ml) and DNase I (1 mg/ml) in HBSS and incubated in a 37° C. water bath for 30 min. Samples were pelleted at 800×g, resuspended in 27% Percoll, and centrifuged for 10 min at 800×g. The myelin/debris layer and Percoll were removed, and the cell pellet was stained and analyzed by flow cytometric analysis. Splenic immune cells were isolated by homogenization through a 70 µm strainer (BD Falcon). RBCs were lysed using ACK lysis buffer. Cells were washed with 25 ml of PBS, centrifuged at 800×g, resuspended in FACS buffer, and stained with antibodies. For the cellular surface staining, cells were resuspended in PBS with a fixable viability dye (BV510) for 10 min. Then, cells were washed two times with FACs buffer and resuspended in Fc Block (anti-CD16/32; 100 ng/ml). For ex vivo re-stimulation, cells were incubated for 96 hr with MOG35-55 before brefeldin A (BFA) (5 μg/ml) was added for 4 h. For intracellular staining, cells were stained for surface markers, fixed/permeabilized, and stained with antibody for 30 min on the ice. After 2× washing, cells were resuspended in FACS buffer and analyzed by flow cytometric analysis. Data were collected with a Cytek Aurora flow cytometer using FCS express software (V7). […]
# [6] = test system: Tregs in the CNS; test: Frequency of Tregs in CNS of EAE mice (flow cytometry); type: in vivo; settings: EAE-induced mice; day 40
# Procedure: Cells from CNS were stained by anti-CD25, anti-CD4, and MOG-tetramer, followed by fixation/permeabilization and intracellular staining with anti-Foxp3. Stained cells were then analyzed by flow cytometry. […] On the other hand, mice treated with free MOG peptide or HDL-M30 had basal level of Tregs as in PBS-treated EAE mice (FIGS. 12A-12B).
# [7] = test system: CD4+ T cells from CNS cells; test: Intracellular cytokine staining of CD4+ T cells from CNS; type: in vivo, C57BL/6 mice; settings: day 40
# Procedure: (§3) Briefly, female C57BL/6 mice were injected subcutaneously with an emulsion of MOG35-55 ([…], SEQ ID NO: 830) in complete Freund's adjuvant (CFA) and intraperitoneal (i.p.) injection of pertussis toxin (120 ng/dose on days 0 and 2). EAE-induced mice were treated with PBS, free MOG, HDL-MOG, or HDL-M30 (irrelevant CD4+ T cell epitope from B16F10 tumor cells) and CNS tissues were harvested on day 40 (FIG. 10A). CNS tissues were harvested from mice after intracardiac perfusion with PBS. Spinal cord was harvested, homogenized in 10 ml of PBS containing 1% BSA, and pelleted at 800×g for 5 min. Cell pellets were resuspended in 3 ml of collagenase A (1 mg/ml) and DNase I (1 mg/ml) in HBSS and incubated in a 37° C. water bath for 30 min. Samples were pelleted at 800×g, resuspended in 27% Percoll, and centrifuged for 10 min at 800×g. The myelin/debris layer and Percoll were removed, and the cell pellet was stained and analyzed by flow cytometric analysis. Splenic immune cells were isolated by homogenization through a 70 µm strainer (BD Falcon). RBCs were lysed using ACK lysis buffer. Cells were washed with 25 ml of PBS, centrifuged at 800×g, resuspended in FACS buffer, and stained with antibodies. For the cellular surface staining, cells were resuspended in PBS with a fixable viability dye (BV510) for 10 min. Then, cells were washed two times with FACs buffer and resuspended in Fc Block (anti-CD16/32; 100 ng/ml). For ex vivo re-stimulation, cells were incubated for 96 hr with MOG35-55 before brefeldin A (BFA) (5 μg/ml) was added for 4 h. For intracellular staining, cells were stained for surface markers, fixed/permeabilized, and stained with antibody for 30 min on the ice. After 2× washing, cells were resuspended in FACS buffer and analyzed by flow cytometric analysis. Data were collected with a Cytek Aurora flow cytometer using FCS express software (V7).
# (§4) On day 40, CNS tissues were isolated and pulsed ex vivo with MOG35-55 peptide, followed by measurement of IL-17, IFN-gamma, and GM-CSF by ELISA (FIG. 10B). […]
# [8] = test system: CD4+ T cells from splenocytes; test: Intracellular cytokine staining of CD4+ T cells from splenocytes; type: in vivo, C57BL/6 mice; settings: spleen; day 40
# Procedure: as §3, §4
# [9] = harsh EAE induced with MOG1-125
compound,measurement,setting,value
"ASFEAQGALANIAVDKA [Ea chain 52-68 peptide, modified with CSS-peptide at N-terminus]",loading efficiency in HDL,[1],~90%
CSS-MOG-K(FITC) [MOG-FITC],internalization by microglia,[2],minimal signal
same,internalization by BMDCs,[3],minimal signal
"ISQAVHAAHAEINEAGR [OVA-II, ovalbumin-II 323-339 peptide, modified with CSS-peptide at N-terminus]",loading efficiency in HDL,[1],~84%
MEVGWYRSPFSRVVHLYRNGK [free MOG peptide],time until mice were moribund,[4]; [9],≤ 20 days
same,average pathological score,[4]; [9],5
same,time until mice were moribund,[4]; mild EAE induced with MOG35-55,≤ 20 days
same,average pathological score,[4]; mild EAE induced with MOG35-55,5
same,level of GM-CSF in CNS,[5],high levels
same,level of IFN-gamma in CNS,[5],high levels
same,level of IL-17 in CNS,[5],high levels
same,frequency of CD25+Foxp3+ Tregs in the CNS,[6],basal level
same,frequency of CD4+ T cells producing GM-CSF,[7],high frequencies
same,frequency of CD4+ T cells producing IFN-gamma,[7],high frequencies
same,frequency of CD4+ T cells producing IL-17,[7],high frequencies
same,loading efficiency in HDL,[1],~90%
same,frequency of CD4+ T cells producing GM-CSF,[8],high frequencies
same,frequency of CD4+ T cells producing IFN-gamma,[8],high frequencies
same,frequency of CD4+ T cells producing IL-17,[8],high frequencies
"COC(=O)c1csc(C(=O)c2c[nH]c3ccccc23)n1 [ITE, 2-(1′H-indole-3′-carbonyl)-thiazole-4-carboxylic acid methyl ester]",drug encapsulate efficiencies,"[1]; drug in HDL nanodiscs, HPLC-MS",~95%
